# Measurements published in US20250000874A1, “BACTERIAL METABOLITES AND THEIR USE IN REDUCING INFLAMMATION” (LOYOLA UNIVERSITY OF CHICAGO, priority 2023, published 2025).
# Entries after “also recorded” stand apart in the source; their conditions may differ.
# How the values were obtained:
# mouse peritonitis = assay: LPS-induced mouse peritonitis model, peritoneal neutrophils by flow cytometry (Ly6G); assay type: in vivo; details: JE i.p. two consecutive days, LPS i.p. day 3, 4 hours, vs PBS
# Procedure: FIG. 4A-4B. Bacterial Supernatant <10 kD fraction inhibits mouse peritonitis in vivo. 6-week old B6 mice were i.p. injected with <10 kD fraction from LF, TS medium, or PBS (500 μL/dose) at day 0 and day 1. At day 2, mice were given LPS (10 μg/mouse) or PBS via i.p. […] (FIG. 4A) The recruited neutrophils were quantified by flow cytometry using the neutrophil markers Ly6G and data were analyzed by FlowJo Software. (FIG. 4B) Neutrophil numbers are shown as mean±s.d., **p<0.01, n=3 per group.
# FIG. 9A-9C. FACS representation of mouse peritonitis model. Histograms were made from FACS gating of cells collected from the peritoneal cavity. (FIG. 9A) Mice were pre-treated for two consecutive days with compound JE and then received LPS. (FIG. 9B) Mice received only LPS. (FIG. 9C) Another group received PBS injected for two consecutive days to serve as a negative control. […]
# Commensal bacteria are non-invading bacteria that habit the host gastrointestinal tract without causing harm. […] We then measured the ability of the <10 kDa fraction to cross intestinal epithelium with the tight junctions without disrupting the integrity. […] To determine if the <10 kD fraction suppresses LPS-induced inflammatory responses in vivo, we intraperitoneally injected the <10 kDa fraction into C57/Bl6 mice followed by LPS and then analyzed peritoneal numbers of neutrophils by flow cytometry. […]
# [1] = tested on: human corneal epithelial cells (HCECs); assay: JE on TLR5 agonist (flagellin)-induced IL-6 in HCECs; assay type: cell-based; details: JE 50 μM overnight, flagellin 6 or 24 hours, ELISA
# Procedure: FIG. 11. Probiotic bacteria metabolite JE inhibits TLR5 agonist-induced IL-6 in HCECs. HCECs were pretreated with 50 µM JE overnight and then stimulated with 0.1 μg/ml flagellin for the indicated time. The effect of TLR5 agonist (flagellin) on IL-6 secretion were measured in cell culture supernatants by ELISA. *, P<0.05.
# To test if JE could be used as a therapeutic agent, we tested its effects on a dry eye disease model. Dry eye disease is characterized by inflammation in ocular surface. First, we tested if JE can inhibit production of pro-inflammatory cytokine IL-6 by corneal epithelial cells stimulated by TLR5 agonist flagellin. Thus, SV 40 immortalized human corneal epithelial cells (HCECs) were with JE at 50 μM overnight and they are subsequently exposed to TLR5 agonists (flagellin isolated from Pseudomonas aeruginosa) for 6 or 24 hours. The cell culture supernatants were collected and used for ELISA to determine the concentrations of IL-6. […] Probiotic bacteria-derived metabolite (JE) suppressed the TLR5 agonist-induced IL-6 production (FIG. 11).
# THP-1 cells = assay: NC on TNFα release in THP-1 cells in response to TLR agonists; assay type: cell-based, human; details: 50 μM NC 18 hours
# Procedure: FIG. 27A and FIG. 27B. Metabolite NC on TNFα release in response to LPS in human and murine macrophages in vitro. Macrophages were plated at a uniform density of 0.2×10^6 cells/mL in 24 well plates. These cells (FIG. 27A) were allowed to adhere, or, in the case of THP-1 cells FIG. 27B), differentiate using PMA. They were then treated for 18 hours with 50 μM of metabolite NC before being stimulated with 0.1 ug of LPS-EK. Supernatant was collected between 4-6 hours after addition of LPS and debris was removed via centrifugation at 1250 rpm for 5 minutes. TNFα was quantified in the supernatant using sandwich ELISA with standards of known concentrations.
# FIG. 28A and FIG. 28B. Metabolite NC on TNFα release in macrophages in response to various TLR agonists. Raw 264.7 cells (FIG. 28A) and THP-1 FIG. 28B) cells were plated at a uniform density of 0.2×10^6 cells per mL and stimulated with various TLR agonists: Pam3CSK4, Poly I:C, LPS, Fla, FSL-1, imiquimod (ImiQ), and ODN-2006. NC reduced TNFα release in response to TLR3 (p<0.0001 via student's t-test for both Raw 264.7 cells and THP-1 cells) and TLR4 agonists in both cell lines.
# To investigate the effects of compound NC, macrophages were stimulated with LPS, an endotoxin associated with gram-negative bacteria. Human and murine macrophage-like cells (THP-1 cells and Raw 264.7 cells, respectively) were plated in 24 well plates at a uniform density of 0.2×10^6 cells/mL. Following 18 hours of pretreatment with 50 μM metabolite NC, they were stimulated with 10 μg/mL of LPS. After 4-6 hours, supernatant was collected and TNFα was quantified using sandwich ELISA. NC reduces TNFα release from both THP-1 and Raw 264.7 macrophage-like cells in response to TLR4 agonist LPS in vitro.
# Metabolite NC reduces inflammation in response to TLR4 agonist LPS. To further investigate the specificity of NC's action in TLR signaling, Raw 264.7 (FIG. 28A) and THP-1 (FIG. 28B) cells were once again plated at a uniform density of 0.2×10^6 cells/mL, treated with 50 μM metabolite NC for 18 hours, and stimulated with agonists for TLR1/2, TLR3, TLR4, TLR5, TLR6/2, TLR7 and TLR9. After 4-6 hours, supernatant was collected and TNFα was quantified via sandwich ELISA.
Compound,peritoneal neutrophil recruitment (mouse peritonitis),TLR5 agonist-induced IL-6 production [1],"TNFα release in response to TLR3 agonist Poly I:C (THP-1 cells; 4-6 hours, ELISA)","TNFα release in response to TLR4 agonist LPS (THP-1 cells; LPS, 4-6 hours, ELISA)",TNFα release in the absence of LPS stimulation (THP-1 cells; unstimulated),"TNFα release in response to other TLR agonists (THP-1 cells; TLR1/2, TLR5, TLR6/2, TLR7, TLR9 agonists)"
"CC(=O)O[C@@H]1CC[C@H]2[C@H]3CC[C@H]4CC(F)(F)CC[C@]4(C)[C@H]3CC[C@]12C [JE, 3,3-Difluoro-5-alpha-androstan-17-beta-yl acetate]",reduced,suppressed,–,–,–,–
"CCCCCCCCCCCCCCCC(=O)N[C@@H](C(=O)O)[C@H](C)O [NC, N-Palmitoyl-D-Threonine]",–,–,reduced,reduced; also recorded: significantly less,did not increase; also recorded: does not increase,did not significantly reduce
